Molecular target: T1, Nuclear receptor ROR-gamma (Homo sapiens, UniProt P51449)
T1 sequence (P51449 whole entry): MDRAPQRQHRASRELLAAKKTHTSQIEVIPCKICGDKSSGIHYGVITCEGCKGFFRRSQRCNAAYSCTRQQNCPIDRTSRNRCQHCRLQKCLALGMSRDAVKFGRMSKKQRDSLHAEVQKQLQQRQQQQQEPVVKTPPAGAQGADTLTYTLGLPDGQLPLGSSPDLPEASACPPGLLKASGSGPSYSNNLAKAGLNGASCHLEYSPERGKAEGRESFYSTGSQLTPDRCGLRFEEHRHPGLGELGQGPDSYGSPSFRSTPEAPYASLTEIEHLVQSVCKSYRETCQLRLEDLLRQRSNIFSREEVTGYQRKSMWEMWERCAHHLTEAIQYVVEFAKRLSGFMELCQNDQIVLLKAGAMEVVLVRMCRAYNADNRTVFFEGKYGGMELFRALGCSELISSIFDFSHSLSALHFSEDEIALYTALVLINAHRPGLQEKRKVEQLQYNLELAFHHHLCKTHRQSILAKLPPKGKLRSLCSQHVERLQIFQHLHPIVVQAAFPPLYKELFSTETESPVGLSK
Test: Displacement of fluorescein-labeled 25-hydroxycholesterol from human N-terminal 6xHis-tagged ROR gamma LBD (residues 262 to 518) expressed in Escherichia coli BL21-CodonPlus(DE3)-RIL cells by fluorescence polarization assay

C[C@H]1O[C@@H](O[C@H]2[C@@H](O)C[C@H](O[C@H]3[C@@H](O)C[C@H](O[C@H]4CC[C@@]5(C)[C@H](CC[C@@H]6[C@@H]5C[C@@H](O)[C@]5(C)[C@@H](C7=CC(=O)OC7)CC[C@]65O)C4)O[C@@H]3C)O[C@@H]2C)C[C@H](O)[C@@H]1O [DIGOXIN]
IC50: 4 µM
